# Source: PubChem BioAssay (NCI)
#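 Following 48 hours of exposure in 96-well plates, responses at five concentrations were used to interpolate endpoints linearly. Definition used: TGI = concentration required for complete inhibition of growth.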
# Legend:
# Assay in all cases: NCI tumour cell line growth inhibition, 48 h
# DMS 273 small cell lung = test system: DMS 273 small cell lung
# HT29 colon = test system: HT29 colon
# M19-MEL melanoma = test system: M19-MEL melanoma
# SNB-19 CNS = test system: SNB-19 CNS
# NCI-H522 lung = test system: NCI-H522 lung
# UACC-62 melanoma = test system: UACC-62 melanoma
# HOP-18 NSCLC = test system: HOP-18 NSCLC
# HCT-116 colon = test system: HCT-116 colon
# XF 498 CNS = test system: XF 498 CNS
# TK-10 renal = test system: TK-10 renal
# U251 CNS = test system: U251 CNS
# UACC-257 melanoma = test system: UACC-257 melanoma
# NCI-H460 lung = test system: NCI-H460 lung
# CAKI-1 renal = test system: CAKI-1 renal
# A498 renal = test system: A498 renal
# SK-OV-3 ovarian = test system: SK-OV-3 ovarian
# SW-620 colon = test system: SW-620 colon
# SK-MEL-2 melanoma = test system: SK-MEL-2 melanoma
# NCI-H226 lung = test system: NCI-H226 lung
# ACHN renal = test system: ACHN renal
# SF-268 CNS = test system: SF-268 CNS
# IGROV1 ovarian = test system: IGROV1 ovarian
# RPMI-8226 leukemia = test system: RPMI-8226 leukemia
# HCC-2998 colon = test system: HCC-2998 colon
# NCI-H23 lung = test system: NCI-H23 lung
# SNB-75 CNS = test system: SNB-75 CNS
# K-562 leukemia = test system: K-562 leukemia
# DLD-1 colon = test system: DLD-1 colon
# LXFL 529 NSCLC = test system: LXFL 529 NSCLC
# OVCAR-8 ovarian = test system: OVCAR-8 ovarian
# OVCAR-3 ovarian = test system: OVCAR-3 ovarian
# SK-MEL-28 melanoma = test system: SK-MEL-28 melanoma
# LOX IMVI melanoma = test system: LOX IMVI melanoma
# A549 NSCLC = test system: A549 NSCLC
# SNB-78 CNS = test system: SNB-78 CNS
# MALME-3M melanoma = test system: MALME-3M melanoma
# OVCAR-5 ovarian = test system: OVCAR-5 ovarian
# HOP-92 NSCLC = test system: HOP-92 NSCLC
# CCRF-CEM leukemia = test system: CCRF-CEM leukemia
# HOP-62 NSCLC = test system: HOP-62 NSCLC
# M14 melanoma = test system: M14 melanoma
# MOLT-4 leukemia = test system: MOLT-4 leukemia
# COLO 205 colon = test system: COLO 205 colon
# KM20L2 colon = test system: KM20L2 colon
# SF-539 CNS = test system: SF-539 CNS
# 786-0 renal = test system: 786-0 renal
# OVCAR-4 ovarian = test system: OVCAR-4 ovarian
# EKVX NSCLC = test system: EKVX NSCLC
# SN12C renal = test system: SN12C renal
# DMS 114 small cell lung = test system: DMS 114 small cell lung
# UO-31 renal = test system: UO-31 renal
# RXF-631 renal = test system: RXF-631 renal
# KM12 colon = test system: KM12 colon
# HCT-15 colon = test system: HCT-15 colon
# SK-MEL-5 melanoma = test system: SK-MEL-5 melanoma
# RXF 393 renal = test system: RXF 393 renal
# SR leukemia = test system: SR leukemia
# HL-60(TB) leukemia = test system: HL-60(TB) leukemia
# SF-295 CNS = test system: SF-295 CNS
compound,measurement,setting,value
COc1cc2c(cc1OC)C(=O)Cc1ccc(OC)c(OC)c1CN(C)CC2,TGI,DMS 273 small cell lung,> 100 µM
same,TGI,HT29 colon,> 100 µM
same,TGI,M19-MEL melanoma,> 100 µM
same,TGI,SNB-19 CNS,> 100 µM
same,TGI,NCI-H522 lung,> 100 µM
same,TGI,UACC-62 melanoma,> 100 µM
same,TGI,HOP-18 NSCLC,> 100 µM
same,TGI,HCT-116 colon,> 100 µM
same,TGI,XF 498 CNS,> 100 µM
same,TGI,TK-10 renal,> 100 µM
same,TGI,U251 CNS,> 100 µM
same,TGI,UACC-257 melanoma,> 100 µM
same,TGI,NCI-H460 lung,84.4 µM
same,TGI,CAKI-1 renal,> 100 µM
same,TGI,A498 renal,48.4 µM
same,TGI,SK-OV-3 ovarian,> 100 µM
same,TGI,SW-620 colon,> 100 µM
same,TGI,SK-MEL-2 melanoma,> 100 µM
same,TGI,NCI-H226 lung,> 100 µM
same,TGI,ACHN renal,> 100 µM
same,TGI,SF-268 CNS,> 100 µM
same,TGI,IGROV1 ovarian,> 100 µM
same,TGI,RPMI-8226 leukemia,> 100 µM
same,TGI,HCC-2998 colon,> 100 µM
same,TGI,NCI-H23 lung,> 100 µM
same,TGI,SNB-75 CNS,> 100 µM
same,TGI,K-562 leukemia,> 100 µM
same,TGI,DLD-1 colon,> 100 µM
same,TGI,LXFL 529 NSCLC,> 100 µM
same,TGI,OVCAR-8 ovarian,> 100 µM
same,TGI,OVCAR-3 ovarian,> 100 µM
same,TGI,SK-MEL-28 melanoma,> 100 µM
same,TGI,LOX IMVI melanoma,> 100 µM
same,TGI,A549 NSCLC,> 100 µM
same,TGI,SNB-78 CNS,> 100 µM
same,TGI,MALME-3M melanoma,> 100 µM
same,TGI,OVCAR-5 ovarian,> 100 µM
same,TGI,HOP-92 NSCLC,98.5 µM
same,TGI,CCRF-CEM leukemia,> 100 µM
same,TGI,HOP-62 NSCLC,> 100 µM
same,TGI,M14 melanoma,> 100 µM
same,TGI,MOLT-4 leukemia,> 100 µM
same,TGI,COLO 205 colon,> 100 µM
same,TGI,KM20L2 colon,> 100 µM
same,TGI,SF-539 CNS,> 100 µM
same,TGI,786-0 renal,> 100 µM
same,TGI,OVCAR-4 ovarian,> 100 µM
same,TGI,EKVX NSCLC,> 100 µM
same,TGI,SN12C renal,> 100 µM
same,TGI,DMS 114 small cell lung,> 100 µM
same,TGI,UO-31 renal,> 100 µM
same,TGI,RXF-631 renal,> 100 µM
same,TGI,KM12 colon,> 100 µM
same,TGI,HCT-15 colon,> 100 µM
same,TGI,SK-MEL-5 melanoma,> 100 µM
O=C(NCC(O)CNC(=O)C(F)(F)F)C(F)(F)F,TGI,DMS 273 small cell lung,> 100 µM
same,TGI,HT29 colon,> 100 µM
same,TGI,M19-MEL melanoma,> 100 µM
same,TGI,SNB-19 CNS,> 100 µM
same,TGI,NCI-H522 lung,> 100 µM
same,TGI,UACC-62 melanoma,> 100 µM
same,TGI,HOP-18 NSCLC,> 100 µM
same,TGI,HCT-116 colon,> 100 µM
same,TGI,XF 498 CNS,> 100 µM
same,TGI,TK-10 renal,> 100 µM
same,TGI,U251 CNS,> 100 µM
same,TGI,UACC-257 melanoma,> 100 µM
same,TGI,NCI-H460 lung,> 100 µM
same,TGI,CAKI-1 renal,> 100 µM
same,TGI,A498 renal,> 100 µM
same,TGI,SK-OV-3 ovarian,> 100 µM
same,TGI,SW-620 colon,> 100 µM
same,TGI,NCI-H226 lung,> 100 µM
same,TGI,RXF 393 renal,> 100 µM
same,TGI,SF-268 CNS,> 100 µM
same,TGI,IGROV1 ovarian,> 100 µM
same,TGI,RPMI-8226 leukemia,> 100 µM
same,TGI,HCC-2998 colon,> 100 µM
same,TGI,NCI-H23 lung,> 100 µM
same,TGI,SNB-75 CNS,> 100 µM
same,TGI,K-562 leukemia,> 100 µM
same,TGI,DLD-1 colon,> 100 µM
same,TGI,LXFL 529 NSCLC,> 100 µM
same,TGI,OVCAR-8 ovarian,> 100 µM
same,TGI,OVCAR-3 ovarian,> 100 µM
same,TGI,LOX IMVI melanoma,> 100 µM
same,TGI,SR leukemia,> 100 µM
same,TGI,A549 NSCLC,> 100 µM
same,TGI,SNB-78 CNS,> 100 µM
same,TGI,MALME-3M melanoma,> 100 µM
same,TGI,OVCAR-5 ovarian,> 100 µM
same,TGI,HOP-92 NSCLC,> 100 µM
same,TGI,CCRF-CEM leukemia,> 100 µM
same,TGI,HOP-62 NSCLC,> 100 µM
same,TGI,M14 melanoma,> 100 µM
same,TGI,MOLT-4 leukemia,> 100 µM
same,TGI,COLO 205 colon,> 100 µM
same,TGI,KM20L2 colon,> 100 µM
same,TGI,SF-539 CNS,> 100 µM
same,TGI,786-0 renal,> 100 µM
same,TGI,OVCAR-4 ovarian,> 100 µM
same,TGI,EKVX NSCLC,> 100 µM
same,TGI,SN12C renal,> 100 µM
same,TGI,HL-60(TB) leukemia,> 100 µM
same,TGI,DMS 114 small cell lung,> 100 µM
same,TGI,UO-31 renal,> 100 µM
same,TGI,SF-295 CNS,> 100 µM
same,TGI,KM12 colon,> 100 µM
same,TGI,HCT-15 colon,> 100 µM
same,TGI,SK-MEL-5 melanoma,> 100 µM
O=C(COC(=O)c1cccc2c(=O)c3ccccc3[nH]c12)Nc1ccccc1,TGI,DMS 273 small cell lung,> 100 µM
same,TGI,HT29 colon,> 100 µM
same,TGI,M19-MEL melanoma,> 100 µM
same,TGI,SNB-19 CNS,> 100 µM
same,TGI,NCI-H522 lung,73.4 µM
same,TGI,UACC-62 melanoma,68 µM
same,TGI,HOP-18 NSCLC,> 100 µM
same,TGI,HCT-116 colon,88.7 µM
same,TGI,XF 498 CNS,74.4 µM
same,TGI,TK-10 renal,> 100 µM
same,TGI,U251 CNS,> 100 µM
same,TGI,UACC-257 melanoma,> 100 µM
same,TGI,NCI-H460 lung,> 100 µM
same,TGI,CAKI-1 renal,> 100 µM
same,TGI,A498 renal,> 100 µM
same,TGI,SK-OV-3 ovarian,> 100 µM
same,TGI,SW-620 colon,> 100 µM
same,TGI,NCI-H226 lung,> 100 µM
same,TGI,RXF 393 renal,97.9 µM
same,TGI,ACHN renal,> 100 µM
same,TGI,SF-268 CNS,> 100 µM
same,TGI,IGROV1 ovarian,> 100 µM
same,TGI,RPMI-8226 leukemia,83.5 µM
same,TGI,HCC-2998 colon,> 100 µM
same,TGI,NCI-H23 lung,58.9 µM
same,TGI,SNB-75 CNS,> 100 µM
same,TGI,K-562 leukemia,> 100 µM
same,TGI,DLD-1 colon,> 100 µM
same,TGI,LXFL 529 NSCLC,> 100 µM
same,TGI,OVCAR-8 ovarian,> 100 µM
same,TGI,OVCAR-3 ovarian,> 100 µM
same,TGI,SK-MEL-28 melanoma,> 100 µM
same,TGI,LOX IMVI melanoma,73.2 µM
same,TGI,SR leukemia,54.3 µM
same,TGI,A549 NSCLC,> 100 µM
same,TGI,MALME-3M melanoma,> 100 µM
same,TGI,HOP-92 NSCLC,> 100 µM
same,TGI,HOP-62 NSCLC,> 100 µM
same,TGI,M14 melanoma,> 100 µM
same,TGI,MOLT-4 leukemia,43.8 µM
same,TGI,COLO 205 colon,51.6 µM
same,TGI,KM20L2 colon,> 100 µM
same,TGI,SF-539 CNS,> 100 µM
same,TGI,786-0 renal,> 100 µM
same,TGI,OVCAR-4 ovarian,> 100 µM
same,TGI,EKVX NSCLC,> 100 µM
same,TGI,SN12C renal,> 100 µM
same,TGI,HL-60(TB) leukemia,36.1 µM
same,TGI,DMS 114 small cell lung,59.3 µM
same,TGI,UO-31 renal,65.4 µM
same,TGI,RXF-631 renal,99 µM
same,TGI,SF-295 CNS,> 100 µM
same,TGI,KM12 colon,54.1 µM
same,TGI,SK-MEL-5 melanoma,42.7 µM
